Test results taken from PMC6838048, “A Cell-Free Approach Based on Phospholipid Characterization for Determination of the Cell Specific Unbound Drug Fraction (fu,cell)” (Pharmaceutical Research, 2019).
Values belong to the molecule of their own block, whether it stands above or below them.

What was measured:
[1] = fu,cell by equilibrium dialysis of cell homogenate, HEK293; type: in vitro ADME; conditions: human, dialysis 4 h 37°C, 10 million cells/mL homogenate, read-out: fu,HEK293 Geomean
Method: (§1) fu,cell was measured in cassette-mode as previously described with minor modifications ([9]). Briefly, 10 million cells/mL were suspended in HBSS buffered with 10 mM HEPES and homogenized on ice by sonication (VCX 750 Sonicator, 3 mm probe, 20% intensity, 10 s). Up to 8 compounds were combined randomly and spiked into the homogenate for a final concentration of 0.5 μM. Equilibrium dialysis was performed in a Rapid Equilibirum device (Thermo Fisher Scientific) against blank HBSS buffered with 10 mM HEPES, for 4 h at 37°C on an orbital shaker at 900 rpm. Stability controls were kept at 4° and 37°C for the duration of the experiment. The concentration in both dialysis chambers was quantified by extracting the compound with acetonitrile/water (60/40) containing internal standard. Matrixes were matched with blank buffer or cell homogenate, respectively. LC-MS/MS parameters are available in Table S9. All experiments were carried out in triplicates and at least at two independent occasions.
(§2) The unbound fraction in the cell homogenate (fu,hom) was determined according to Eq. (1):1 fu,hom=Cbuffer/Chom and the fraction of unbound compound in the cell (fu,cell) was calculated by correcting for homogenate dilution according to Eq. (2):2 fu,cell=1/DP∙1/fu,hom−1+1 where the dilution constant DP was calculated using Eq. (3), assuming the Vcell to be equal to 6.5 μL/mg protein ([6],[10]). Protein content in the cell homogenates was determined at each experiment using the BCA Protein Assay Reagent Kit (Thermo Fisher Scientific Inc.).3 DP=1/Vcell

[2] = fu,cell by equilibrium dialysis of cell homogenate, HL60; type: in vitro ADME; conditions: human, dialysis 4 h 37°C, 10 million cells/mL homogenate, read-out: fu,HL60 Geomean
Method: as §1, §2

[3] = fu,cell by equilibrium dialysis of cell homogenate, Caco-2; type: in vitro ADME; conditions: human, Caco-2 cell homogenate, dialysis 4 h 37°C, 10 million cells/mL homogenate, read-out: fu,Caco-2 Geomean
Method: as §1
(§3) (3), assuming the Vcell to be equal to 6.5 μL/mg protein ([6],[10]). Protein content in the cell homogenates was determined at each experiment using the BCA Protein Assay Reagent Kit (Thermo Fisher Scientific Inc.).3 DP=1/Vcell

[4] = fu,cell by equilibrium dialysis of cell homogenate, LLC-PK1; type: in vitro ADME; conditions: pig, dialysis 4 h 37°C, 10 million cells/mL homogenate, read-out: fu,LLCPK1 Geomean
Method: as §1, §2

[5] = fu,cell by equilibrium dialysis of cell homogenate, A549; type: in vitro ADME; conditions: human, dialysis 4 h 37°C, 10 million cells/mL homogenate, read-out: fu,A549 Geomean
Method: as §1, §2

[6] = fu,cell by equilibrium dialysis of cell homogenate, K562; type: in vitro ADME; conditions: human, dialysis 4 h 37°C, 10 million cells/mL homogenate, read-out: fu,K562 Geomean
Method: as §1, §2

[7] = fu,cell by equilibrium dialysis of cell homogenate, MDCK; type: in vitro ADME; conditions: dog, dialysis 4 h 37°C, 10 million cells/mL homogenate, read-out: fu,MDCK Geomean
Method: as §1, §3

[8] = fu,cell by equilibrium dialysis of cell homogenate, primary human hepatocytes; type: in vitro ADME; conditions: primary human hepatocyte homogenate, dialysis 4 h 37°C, 10 million cells/mL homogenate, read-out: fu,HH Geomean
Method: as §1, §2

[9] = fu,PL from membrane affinity to PL-covered silica beads, PC; type: in vitro ADME; conditions: beads coated with pure PC, 15 min incubation; for fraction unbound at 15 min: silica beads covered with phosphatidylcholine (PC), Transil, read-out: fu,PC Geomean
Method: (§4) f u,PL was derived from membrane affinity measurements to beads covered with PLs as previously described ([6]).
(§5) Cbuffer was quantified by LC-MS/MS in samples of the supernatant that was obtained after 15 min incubation time on an orbital shaker at 1000 rpm and subsequent separation from the beads by centrifugation at 750 x g. […] Unspecific binding was evaluated by incubations into wells without added lipids.

[10] = fu,PL from membrane affinity to PL-covered silica beads, PS; type: in vitro ADME; conditions: silica beads covered with phosphatidylserine (PS), Transil; beads coated with pure PS, 15 min incubation; read-out: fu,PS Geomean
Method: as §4, §5

[11] = fu,PL from membrane affinity to PL-covered silica beads, PE; type: in vitro ADME; conditions: beads coated with pure PE, 15 min incubation; read-out: fu,PE Geomean
Method: as §4, §5

[12] = fu,PL from membrane affinity to PL-covered silica beads, mixed beads; type: in vitro ADME; conditions: for fraction unbound at 15 min: mixed beads PC:PE:PS:PI 52:22:12:14 mol%, 15 min incubation, read-out: fu,mixed bead Geomean
Method: as §4, §5

cell types of the study = conditions: contributions from several PL subspecies combined (Fig. 5b)

SMILES: CCN(CC)CCCC(C)Nc1c2ccc(Cl)cc2nc2ccc(OC)cc12 (stereo not drawn) [Quinacrine]
fraction unbound at 4 h, 0.5 μM [1]: 0.0075 | fraction unbound at 4 h, 0.5 μM [4]: 0.0008 | fraction unbound at 4 h, 0.5 μM [5]: 0.0009 | fraction unbound at 4 h, 0.5 μM [6]: 0.0164 | fraction unbound at 4 h, 0.5 μM [7]: 0.0036 | fraction unbound at 4 h, 0.5 μM [8]: 0.0066 | fu,PC Geomean [9]: 0.0002 | fraction unbound at 15 min [10]: 0.001 | fraction unbound at 15 min [12]: 0.0029 | predicted versus measured fu,cell (cell types of the study): consistently over-predicted

SMILES: CCCNC(=O)NS(=O)(=O)c1ccc(Cl)cc1 [Chlorpropamide]
fraction unbound at 4 h, 0.5 μM [1]: 0.571 | fraction unbound at 4 h, 0.5 μM [2]: 0.54 | fraction unbound at 4 h, 0.5 μM [3]: 0.654 | fraction unbound at 4 h, 0.5 μM [4]: 0.6 | fraction unbound at 4 h, 0.5 μM [5]: 0.376 | fraction unbound at 4 h, 0.5 μM [6]: 0.638 | fraction unbound at 4 h, 0.5 μM [7]: 0.349 | fraction unbound at 4 h, 0.5 μM [8]: 0.944 | fraction unbound at 15 min [9]: 0.0534 | fraction unbound at 15 min [10]: 0.0089 | fraction unbound at 15 min [11]: 0.0109 | fu,PL (in words) ([12]; examples of Fig. 3c, individual PL beads and mixed beads): high | fraction unbound at 15 min [12]: 0.0343

SMILES: OC(Cn1cncn1)(Cn1cncn1)c1ccc(F)cc1F [Fluconazole]
fraction unbound at 4 h, 0.5 μM [1]: 0.1 | fraction unbound at 4 h, 0.5 μM [2]: 0.646 | fraction unbound at 4 h, 0.5 μM [3]: 0.456 | fraction unbound at 4 h, 0.5 μM [4]: 0.159 | fraction unbound at 4 h, 0.5 μM [5]: 0.159 | fraction unbound at 4 h, 0.5 μM [6]: 1 | fraction unbound at 4 h, 0.5 μM [7]: 0.229 | fraction unbound at 4 h, 0.5 μM [8]: 0.737 | fraction unbound at 15 min [9]: 0.0428 | fraction unbound at 15 min [10]: 0.0045 | fraction unbound at 15 min [11]: 0.0081 | fraction unbound at 15 min [12]: 0.028

SMILES: COc1ccccc1Oc1c(NS(=O)(=O)c2ccc(C(C)(C)C)cc2)nc(-c2ncccn2)nc1OCCO [Bosentan]
fraction unbound at 4 h, 0.5 μM [1]: 0.0634 | fraction unbound at 4 h, 0.5 μM [2]: 0.0579 | fraction unbound at 4 h, 0.5 μM [3]: 0.0335 | fraction unbound at 4 h, 0.5 μM [4]: 0.0538 | fraction unbound at 4 h, 0.5 μM [5]: 0.0519 | fraction unbound at 4 h, 0.5 μM [6]: 0.0856 | fraction unbound at 4 h, 0.5 μM [7]: 0.036 | fraction unbound at 4 h, 0.5 μM [8]: 0.0337 | fraction unbound at 15 min [9]: 0.002 | fraction unbound at 15 min [10]: 0.0014 | fraction unbound at 15 min [11]: 0.0019 | fraction unbound at 15 min [12]: 0.004

SMILES: CCOc1nc2cccc(C(=O)O)c2n1Cc1ccc(-c2ccccc2-c2nnn[nH]2)cc1 [Candesartan]
fraction unbound at 4 h, 0.5 μM [1]: 0.246 | fraction unbound at 4 h, 0.5 μM [2]: 0.205 | fraction unbound at 4 h, 0.5 μM [3]: 0.0945 | fraction unbound at 4 h, 0.5 μM [4]: 0.118 | fraction unbound at 4 h, 0.5 μM [5]: 0.103 | fraction unbound at 4 h, 0.5 μM [6]: 0.948 | fraction unbound at 4 h, 0.5 μM [7]: 0.0968 | fraction unbound at 4 h, 0.5 μM [8]: 0.247 | fraction unbound at 15 min [9]: 0.0174 | fraction unbound at 15 min [10]: 0.0018 | fraction unbound at 15 min [11]: 0.0055 | fraction unbound at 15 min [12]: 0.0081

Next, values leading:

fraction unbound at 4 h, 0.5 μM [1]: 0.0312 | fraction unbound at 4 h, 0.5 μM [2]: 0.0341 | fraction unbound at 4 h, 0.5 μM [3]: 0.0225 | fraction unbound at 4 h, 0.5 μM [4]: 0.0305 | fraction unbound at 4 h, 0.5 μM [5]: 0.0254 | fraction unbound at 4 h, 0.5 μM [6]: 0.0385 | fraction unbound at 4 h, 0.5 μM [7]: 0.0269 | fraction unbound at 4 h, 0.5 μM [8]: 0.0097 | fraction unbound at 15 min [9]: 0.0114 | fraction unbound at 15 min [10]: 0.0084 | fraction unbound at 15 min [11]: 0.0039 | fraction unbound at 15 min [12]: 0.0095 | predicted versus measured fu,cell (cell types of the study): consistently over-predicted
SMILES: CCOc1cc(CC(=O)N[C@@H](CC(C)C)c2ccccc2N2CCCCC2)ccc1C(=O)O [Repaglinide]

fraction unbound at 4 h, 0.5 μM [1]: 0.0208 | fraction unbound at 4 h, 0.5 μM [2]: 0.0438 | fraction unbound at 4 h, 0.5 μM [3]: 0.0118 | fraction unbound at 4 h, 0.5 μM [4]: 0.0078 | fraction unbound at 4 h, 0.5 μM [5]: 0.0085 | fraction unbound at 4 h, 0.5 μM [6]: 0.0348 | fraction unbound at 4 h, 0.5 μM [7]: 0.0215 | fraction unbound at 4 h, 0.5 μM [8]: 0.0014 | fraction unbound at 15 min [9]: 0.0005 | fraction unbound at 15 min [10]: 0.0006 | fraction unbound at 15 min [11]: 0.0019 | fraction unbound at 15 min [12]: 0.0004
SMILES: Nc1ccc(/N=N/c2ccccc2)c(N)n1 [Phenazopyridine]

fraction unbound at 4 h, 0.5 μM [1]: 0.463 | fraction unbound at 4 h, 0.5 μM [2]: 0.223 | fraction unbound at 4 h, 0.5 μM [3]: 0.181 | fraction unbound at 4 h, 0.5 μM [4]: 0.238 | fraction unbound at 4 h, 0.5 μM [5]: 0.232 | fraction unbound at 4 h, 0.5 μM [6]: 0.419 | fraction unbound at 4 h, 0.5 μM [7]: 0.255 | fraction unbound at 4 h, 0.5 μM [8]: 0.161 | fraction unbound at 15 min [9]: 0.0203 | fraction unbound at 15 min [10]: 0.0154 | fraction unbound at 15 min [11]: 0.0131 | fraction unbound at 15 min [12]: 0.0237
SMILES: COc1ccc2[nH]c([S+]([O-])Cc3ncc(C)c(OC)c3C)nc2c1 (stereo not drawn) [Omeprazole]

fraction unbound at 4 h, 0.5 μM [1]: 0.0074 | fraction unbound at 4 h, 0.5 μM [2]: 0.011 | fraction unbound at 4 h, 0.5 μM [3]: 0.0024 | fraction unbound at 4 h, 0.5 μM [4]: 0.002 | fraction unbound at 4 h, 0.5 μM [5]: 0.0012 | fraction unbound at 4 h, 0.5 μM [6]: 0.0055 | fraction unbound at 4 h, 0.5 μM [7]: 0.0045 | fraction unbound at 4 h, 0.5 μM [8]: 0.0013 | fraction unbound at 15 min [9]: 0.0004 | fraction unbound at 15 min [10]: 0.0002 | fraction unbound at 15 min [11]: 0.0011 | fraction unbound at 15 min [12]: 0.0002
SMILES: CC[C@H](C)C(=O)O[C@H]1C[C@@H](C)C=C2C=C[C@H](C)[C@H](CC[C@@H]3C[C@@H](O)CC(=O)O3)[C@H]21 [Lovastatin]

fraction unbound at 4 h, 0.5 μM [1]: 0.0906 | fraction unbound at 4 h, 0.5 μM [2]: 0.339 | fraction unbound at 4 h, 0.5 μM [3]: 0.174 | fraction unbound at 4 h, 0.5 μM [4]: 0.34 | fraction unbound at 4 h, 0.5 μM [5]: 0.0881 | fraction unbound at 4 h, 0.5 μM [6]: 1 | fraction unbound at 4 h, 0.5 μM [7]: 0.202 | fraction unbound at 4 h, 0.5 μM [8]: 0.374 | fraction unbound at 15 min [9]: 0.0101 | fraction unbound at 15 min [10]: 0.0081 | fraction unbound at 15 min [11]: 0.0099 | fraction unbound at 15 min [12]: 0.0148
SMILES: COCCc1ccc(OCC(O)CNC(C)C)cc1 (stereo not drawn) [Metoprolol]
